From patent US20090048310A1, “AGENT FOR PREVENTION/TREATMENT OF DISEASE CAUSED BY ACYCLOVIR-RESISTANT HERPESVIRUS” (ASTELLAS PHARMA INC., priority 2005, published 2009)
Like-named read-outs stand apart in the source and are kept apart here.

Assays:
[1] = test system: ACV-resistant VZV (Kanno-Br^ACV-R strain); test: Anti-ACV-resistant VZV activity assay (plaque reduction); type: cell-based, varicella zoster virus (VZV); conditions: Human alphaherpesvirus 3, HEF, read-out: EC50, concentration which inhibits 50% of the number of plaques (Example 1)
Experimental: This assay was carried out in reference to the method described by Shigeta S. in The Journal of Infectious Diseases, 147, 3, 576-584, (1983). Specifically, 10,000 cells of human embryonic fibroblast (HEF) were inoculated into a 96 well microtiter plate using a growth medium (Eagle MEM (Nissui) supplemented with 10% (v/v) fetal bovine serum (FBS, Sigma)) and cultured at 37° C. for 4 days under 5% CO2 until they became a monolayer. […] The plate was centrifuged at room temperature at 2000 rpm for 20 minutes and then incubated at 37° C. for 3 hours under 5% CO2 for infection with VZV. After washing three times with the maintenance medium 100 μl of each test drug diluted to an appropriate concentration with the maintenance medium was added to each well. After culturing the cells at 37° C. for 3 to 4 days under 5% CO2, 10% formalin/PBS was added thereto in 100 μl/well portions, and the cells were fixed for 2 to 3 hours. The fixing liquid and culture supernatant were discarded and the plate was washed with water, and then staining was carried out for 2 to 3 minutes by adding a staining liquid (0.025% Crystal Violet) in 50 μl/well portions, and the plate was washed with water and dried at 37° C. The HEF cells infected with VZV cause cell death, and plaques consisting of the dead cells are formed in the mono-layered HEF cells.

[2] = test system: ACV-resistant HSV-1 (A4-3^ACV-R strain); test: Anti-ACV-resistant HSV-1 activity assay (plaque reduction); type: cell-based
Experimental: A total of from 100,000 to 150,000 cells of an African green monkey kidney cell (Vero cell) were inoculated into a 24 well plate using a growth medium (Eagle MEM (Nissui) supplemented with 10% FBS) and cultured at 37° C. for 3 to 4 days under 5% CO2 until they became a monolayer. After washing the cells with a maintenance medium, ACV-resistant HSV-1 (A4-3^ACV-R strain) which had been diluted with the maintenance medium (Eagle MEM supplemented with 2% FBS) to a viral titer of from 100 to 250 pfu/200 μl was inoculated therein in 200 μl/well portions. The plate was centrifuged at room temperature at 1500 rpm for 40 minutes and then incubated at 37° C. for 1 hour under 5% CO2 for infection with HSV-1. After washing three times with the maintenance medium, 100 μl of each test drug diluted to an appropriate concentration with the maintenance medium was added to each well. After culturing the cells at 37° C. for 3 to 4 days under 5% CO2, 10% formalin/PBS was added thereto in 200 μl/well portions, and the cells were fixed for 2 to 3 hours. The fixing liquid and culture supernatant were discarded and the plate was washed with water, and then staining was carried out for 2 to 3 minutes by adding a staining liquid (0.025% Crystal Violet) in 100 μl/well portions, and the plate was washed with water and dried at 37° C. The Vero cells infected with HSV-1 cause cell death, and plaques consisting of the dead cells are formed in the mono-layered Vero cells.

ACV-resistant HSV-1 = ACV-resistant HSV-1 infection lethal model in nude mice; type: in vivo, nude mouse (CD-1(ICR)-nu/nu); conditions: 100 mg/kg oral twice a day for 15 days; for death suppressing effect (in words): 17 days after infection
Experimental: ACV-resistant HSV-1 (3×10^6 pfu) was inoculated into the peritoneal cavity of each nude mouse (CD-1(ICR)-nu/nu, […], female, Charles River Japan) to cause infection with the virus. Each compound to be tested was made into a methyl cellulose suspension and orally administered at a dose of 100 mg/kg, twice a day for 15 days starting 1 hour after the infection (from 0 to 14 days after the infection).
During 17 days after the infection, death of the mice caused by ACV-resistant HSV-1 infection was observed every day, and the number of survived animals was counted.

HSV-1 strain WT-51 = test: Cutaneous HSV-1 infection mouse model; type: in vivo, HR-1 hairless mouse; conditions: oral, methyl cellulose suspension, 10 mg/kg twice a day for 5 days, scores for 17 days
Experimental: Using a cutaneous HSV-1 infection mouse model prepared in reference to the method of H. Machida et al. (Antiviral Res., 1992, 17, 133-143), the in vivo […] of the compounds of the present invention was tested using an animal model. The skin of each HR-1 hairless mouse [female, 7 weeks of age] was scratched lengthwise and breadthwise several times using a needle and a virus suspension (HSV-1 strain WT-51, 1.5×10^4 PFU/15 μl) was dropped to the scarified region for infection, while anesthetized with diethyl ether.
Tested compounds were administered orally as a methyl cellulose suspension, except for compounds marked with asterisk which were dissolved in 20% Cremophor EL (Nacalai Tesque)/20% polyethylene glycol (PEG) 400/60% H2O solution, starting at 3 hours after the infection, and then at a dose of 10 mg/kg twice a day for 5 days. The symptom of the skin lesion caused by HSV-1 infection were classified in the following scores for 17 days:
Score 0: no signs of infection.
Score 1: localized, barely perceptible small vesicles.
Score 2: slight vesicle spread.
Score 3: large patches of vesicles formed.
Score 4: zosteriform vesicles.
Score 5: large patches of ulcers formed.
Score 6: zosteriform with severe large ulcers.
Score 7: hind limb paralysis or death.
The AUC value was calculated from each group's mean disease score, and the disease inhibitory rate of the group administered with each test compound to the placebo group was calculated using the AUC.

[3] = Human alphaherpesvirus 1, Vero, read-out: EC50, concentration which inhibits 50% of the number of plaques (Example 2), ACV-resistant HSV-1 A4-3 ACV-R strain in Vero cells

SMILES: Cc1cccc(C)c1N(CC(=O)Nc1ccc(-c2ncon2)cc1)C(=O)C1CCS(=O)(=O)CC1 [Preparation 27, N-(2,6-dimethylphenyl)-N-(2-{[4-(1,2,4-oxadiazol-3-yl)phenyl]amino}-2-oxoethyl)tetrahydro-2H-thiopyran-4-carboxamide 1,1-dioxide]
- EC50 [1]: 82 nM
- EC50 [2, 3]: 68 nM
- death suppressing effect (in words) (ACV-resistant HSV-1): completely suppressed death of the mice
- The number of survived animals (n = 10) (ACV-resistant HSV-1; day 0 after infection): 10
- The number of survived animals (n = 10) (ACV-resistant HSV-1; day 1 after infection): 10
- The number of survived animals (n = 10) (ACV-resistant HSV-1; day 2 after infection): 10
- The number of survived animals (n = 10) (ACV-resistant HSV-1; day 4 after infection): 10
- The number of survived animals (n = 10) (ACV-resistant HSV-1; day 5 after infection): 10
- The number of survived animals (n = 10) (ACV-resistant HSV-1; day 6 after infection): 10
- The number of survived animals (n = 10) (ACV-resistant HSV-1; day 7 after infection): 10
- The number of survived animals (n = 10) (ACV-resistant HSV-1; day 8 after infection): 10
- The number of survived animals (n = 10) (ACV-resistant HSV-1; day 9 after infection): 10
- The number of survived animals (n = 10) (ACV-resistant HSV-1; day 10 after infection): 10
- The number of survived animals (n = 10) (ACV-resistant HSV-1; day 11 after infection): 10
- The number of survived animals (n = 10) (ACV-resistant HSV-1; day 12 after infection): 10
- The number of survived animals (n = 10) (ACV-resistant HSV-1; day 14 after infection): 10
- The number of survived animals (n = 10) (ACV-resistant HSV-1; day 16 after infection): 10
- The number of survived animals (n = 10) (ACV-resistant HSV-1; day 17 after infection): 10

SMILES: Cc1cccc(N(CC(=O)Nc2ccc(-c3cocn3)cc2)C(=O)C2CCS(=O)(=O)CC2)c1 [Preparation 3, N-(3-methylphenyl)-N-(2-{[4-(1,3-oxazol-4-yl)phenyl]amino}-2-oxoethyl)tetrahydro-2H-thiopyran-4-carboxamide 1,1-dioxide]
- Inhibition ratio (%) (disease inhibitory rate vs placebo from AUC of mean disease score) (HSV-1 strain WT-51): 70%

SMILES: Cc1ccc(N(CC(=O)Nc2ccc(-c3ncon3)cc2)C(=O)C2CCS(=O)(=O)CC2)c(C)c1F [Preparation 39, N-(3-fluoro-2,4-dimethylphenyl)-N-(2-{[4-(1,2,4-oxadiazol-3-yl)phenyl]amino}-2-oxoethyl)tetrahydro-2H-thiopyran-4-carboxamide 1,1-dioxide]
- Inhibition ratio (%) (disease inhibitory rate vs placebo from AUC of mean disease score) (HSV-1 strain WT-51): 80%

SMILES: O=C(CN(C(=O)C1CCS(=O)(=O)CC1)c1ccc2c(c1)CCC2)Nc1ccc(-c2cocn2)cc1 [Preparation 11, N-(2,3-dihydro-1H-inden-5-yl)-N-(2-{[4-(1,3-oxazol-4-yl)phenyl]amino}-2-oxoethyl)tetrahydro-2H-thiopyran-4-carboxamide 1,1-dioxide]
- Inhibition ratio (%) (disease inhibitory rate vs placebo from AUC of mean disease score) (HSV-1 strain WT-51): 92%

SMILES: Cc1ccc(N(CC(=O)Nc2ccc(-c3cocn3)cc2)C(=O)C2CCS(=O)(=O)CC2)cc1 [Preparation 2, N-(4-methylphenyl)-N-(2-{[4-(1,3-oxazol-4-yl)phenyl]amino}-2-oxoethyl)tetrahydro-2H-thiopyran-4-carboxamide 1,1-dioxide]
- EC50 [1]: 35 nM
- EC50 [2, 3]: 35 nM
- death suppressing effect (in words) (ACV-resistant HSV-1): completely suppressed death of the mice
- The number of survived animals (n = 10) (ACV-resistant HSV-1; day 0 after infection): 10
- The number of survived animals (n = 10) (ACV-resistant HSV-1; day 1 after infection): 10
- The number of survived animals (n = 10) (ACV-resistant HSV-1; day 2 after infection): 10
- The number of survived animals (n = 10) (ACV-resistant HSV-1; day 4 after infection): 10
- The number of survived animals (n = 10) (ACV-resistant HSV-1; day 5 after infection): 10
- The number of survived animals (n = 10) (ACV-resistant HSV-1; day 6 after infection): 10
- The number of survived animals (n = 10) (ACV-resistant HSV-1; day 7 after infection): 10
- The number of survived animals (n = 10) (ACV-resistant HSV-1; day 8 after infection): 10
- The number of survived animals (n = 10) (ACV-resistant HSV-1; day 9 after infection): 10
- The number of survived animals (n = 10) (ACV-resistant HSV-1; day 10 after infection): 10
- The number of survived animals (n = 10) (ACV-resistant HSV-1; day 11 after infection): 10
- The number of survived animals (n = 10) (ACV-resistant HSV-1; day 12 after infection): 10
- The number of survived animals (n = 10) (ACV-resistant HSV-1; day 14 after infection): 10
- The number of survived animals (n = 10) (ACV-resistant HSV-1; day 16 after infection): 10
- The number of survived animals (n = 10) (ACV-resistant HSV-1; day 17 after infection): 10

SMILES: Cc1ccc(N(CC(=O)Nc2ccc(-c3cocn3)cc2)C(=O)C2CCS(=O)(=O)CC2)c(C)c1 [Preparation 6, N-(2,4-dimethylphenyl)-N-(2-{[4-(1,3-oxazol-4-yl)phenyl]amino}-2-oxoethyl)tetrahydro-2H-thiopyran-4-carboxamide 1,1-dioxide]
- Inhibition ratio (%) (disease inhibitory rate vs placebo from AUC of mean disease score) (HSV-1 strain WT-51): 92%

SMILES: Cc1ccc(N(CC(=O)Nc2ccc(-c3cocn3)cc2)C(=O)C2CCS(=O)(=O)CC2)c(C)c1F [Preparation 17, N-(3-fluoro-2,4-dimethylphenyl)-N-(2-{[4-(1,3-oxazol-4-yl)phenyl]amino}-2-oxoethyl)tetrahydro-2H-thiopyran-4-carboxamide 1,1-dioxide]
- Inhibition ratio (%) (disease inhibitory rate vs placebo from AUC of mean disease score) (HSV-1 strain WT-51): 94%

SMILES: Cc1ccccc1N(CC(=O)Nc1ccc(-c2cocn2)cc1)C(=O)C1CCS(=O)(=O)CC1 [Preparation 4, N-(2-methylphenyl)-N-(2-{[4-(1,3-oxazol-4-yl)phenyl]amino}-2-oxoethyl)tetrahydro-2H-thiopyran-4-carboxamide 1,1-dioxide]
- Inhibition ratio (%) (disease inhibitory rate vs placebo from AUC of mean disease score) (HSV-1 strain WT-51): 77%

SMILES: Cc1cc(N(CC(=O)Nc2ccc(-c3ncon3)cc2)C(=O)C2CCS(=O)(=O)CC2)ccc1Cl [Preparation 37, N-(4-chloro-3-methylphenyl)-N-(2-{[4-(1,2,4-oxadiazol-3-yl)phenyl]amino}-2-oxoethyl)tetrahydro-2H-thiopyran-4-carboxamide 1,1-dioxide]
- Inhibition ratio (%) (disease inhibitory rate vs placebo from AUC of mean disease score) (HSV-1 strain WT-51): 100%

SMILES: Cc1c(F)cc(N(CC(=O)Nc2ccc(-c3cocn3)cc2)C(=O)C2CCS(=O)(=O)CC2)cc1F [Preparation 19, N-(3,5-difluoro-4-methylphenyl)-N-(2-{[4-(1,3-oxazol-4-yl)phenyl]amino}-2-oxoethyl)tetrahydro-2H-thiopyran-4-carboxamide 1,1-dioxide]
- Inhibition ratio (%) (disease inhibitory rate vs placebo from AUC of mean disease score) (HSV-1 strain WT-51): 71%

SMILES: Nc1nc2c(ncn2COCCO)c(=O)[nH]1 [ACV, acyclovir]
- EC50 [2, 3]: 68000 nM
- EC50 ([2]; read-out: EC50, concentration which inhibits 50% of the number of plaques (Example 2), ACV-resistant HSV-1 A4-3 ACV-R strain in Vero cells): 120000 nM

SMILES: Cc1ccc(N(CC(=O)Nc2ccc(-c3cocn3)cc2)C(=O)C2CCS(=O)(=O)CC2)cc1F [Preparation 14, N-(3-fluoro-4-methylphenyl)-N-(2-{[4-(1,3-oxazol-4-yl)phenyl]amino}-2-oxoethyl)tetrahydro-2H-thiopyran-4-carboxamide 1,1-dioxide]
- Inhibition ratio (%) (disease inhibitory rate vs placebo from AUC of mean disease score) (HSV-1 strain WT-51): 98%

SMILES: Cc1ccc(N(CC(=O)Nc2ccc(-c3cocn3)cc2)C(=O)C2CCS(=O)(=O)CC2)cc1C [Preparation 8, N-(3,4-dimethylphenyl)-N-(2-{[4-(1,3-oxazol-4-yl)phenyl]amino}-2-oxoethyl)tetrahydro-2H-thiopyran-4-carboxamide 1,1-dioxide]
- Inhibition ratio (%) (disease inhibitory rate vs placebo from AUC of mean disease score) (HSV-1 strain WT-51): 91%

SMILES: O=C(CN(C(=O)C1CCS(=O)(=O)CC1)c1ccc2c(c1)CCC2)Nc1ccc(-c2ncon2)cc1 [Preparation 33, N-(2,3-dihydro-1H-inden-5-yl)-N-(2-{[4-(1,2,4-oxadiazol-3-yl)phenyl]amino}-2-oxoethyl)tetrahydro-2H-thiopyran-4-carboxamide 1,1-dioxide]
- Inhibition ratio (%) (disease inhibitory rate vs placebo from AUC of mean disease score) (HSV-1 strain WT-51): 79%

SMILES: COc1ccc(N(CC(=O)Nc2ccc(-c3csc(N)n3)cc2)C(=O)C2CCS(=O)(=O)CC2)cc1 [Comparative compound B, reference compound]
- Inhibition ratio (%) (disease inhibitory rate vs placebo from AUC of mean disease score) (HSV-1 strain WT-51): 2%
